Data on one substance can be found in patent publication US8937038B2, “Composition containing peptide ligand that bonds with CXCR2 for treating infective and inflammatory diseases” (priority 2010, dated 2015).

Assay [1] deals with CLP mice. Briefly: Cytokines in peritoneal fluid after CLP (ELISA). In kind it is in vivo, mouse. Here is the method:
To measure a production amount of cytokines induced by CLP in a peritoneal lavage fluid, mice were provided with Ac-PGP for 2 hours, 14 hours, 26 hours, and 38 hours after CLP. A peritoneal lavage fluid was collected within various time zones between 4 and 72 hours after the CLP, and cytokines present in the peritoneal fluid was measured using ELISA (BD Biosciences Pharmingen).
(§1) An effect of the Ac-PGP on a pro-inflammatory cytokine in a peritoneal fluid by CLP was determined from 4 to 72 hours after the CLP. The CLP induced a remarkable increase in levels of pro-inflammatory cytokines (TNF-α, IL-1β and IL-6) within 24 hours (FIGS. 14 to 16). Injection of the Ac-PGP in a sepsis model by the CLP induced a remarkable change in levels of the cytokines. […] To evaluate an effect of the Ac-PGP on production of the pro-inflammatory cytokines by the LPS, in vitro production of TNF-α and IL-6 by the mouse splenocytes was evaluated. Direct release of the TNF-α and IL-6 from the mouse splenocytes by the LPS was suppressed by in vitro treatment with the Ac-PGP (FIGS. 17 and 18).
An effect of the Ac-PGP on levels of Th1 cytokines by CLP in a peritoneal fluid was also determined from 4 to 72 hours after the CLP.
Background: ELISA stands for enzyme-linked immunosorbent assay.

For assay [2], the system named is E. coli-vaccinated mice. Briefly: Survival in E. coli-induced sepsis model. The class given is in vivo. Particulars: E. coli 1×10^9 cells/mouse; 17.5 mg/kg four times from 2 hours after vaccination; compared with PBS. Here is the method:
Male WT ICR mice were used to evaluate a therapeutic effect of Ac-PGP. IFN-γ-deficient mice (kindly provided by Y. K. Kim at the Pohang University of Science and Technology, Pohang, Republic of Korea) were used for mechanism study. All Examples in which animals were used were performed according to the instructions with permission of the Institutional Review Board (IRB) for the care and management of laboratory animals at Dong-A University. In the case of the CLP, mice were anesthetized with pentothal sodium (50 mg/kg, intraperitoneally injected), and abdomen of each mouse was cut along a central cutting line to expose an appendix. Then, an ileocecal valve of the appendix was tied up, both surfaces of the ileocecal valve were punctured twice with a 22-gauge needle (or punctured once to measure a production amount of cytokines), and the abdomen was sutured. Sham CLP mice were treated in the same manner as described above, except that CLP of the appendix was not performed. A survival rate of the mice was monitored every day for 10 days. In the case of the LPS or E. coli model, E. coli and LPS were intraperitoneally injected at concentrations of 1×10^9 cells/mouse and 60 mg/kg, respectively. A survival rate of the mice was monitored once a day for 10 days.
In another mouse model of sepsis, a therapeutic effect of Ac-PGP was also evaluated.

Assay [3] deals with CLP mice. Nature of the assay: Histological analysis (hematoxylin and eosin) of major internal organs of CLP mice. The class given is in vivo, mouse. The note with it: FIG. 7. Here is the method: A mouse was subjected to CLP surgery, and after 2 hours, PBS or Ac-PGP was injected at a dose of 17.5 mg/kg to the mouse. After the CLP surgery, the mouse was sacrificed within 24 hours, and the lung of the mouse was fixed, microtomed, and stained with hematoxylin and eosin so as to perform morphological analysis.
The defunctionalization of the major internal organs such as lungs was associated with the mortality after sepsis. A morphological change was observed by performing hematoxylin and eosin staining. […] Liver tissues from the CLP mice were necrotized to a higher extent, but the necrosis of the liver tissues was decreased by administration of Ac-PGP. […] Most of the apoptosis in the thymus or spleen of a CLP mouse was caused in the cortex of the thymus or spleen in which immature cells were populated. When compared with those of the sham or Ac-PGP mice, an important morphological change in apoptotic cells of the CLP mice is that small compact pyknosis containing multiple nuclear fragments were present in apoptotic lymphocytes (FIG. 7). […] The apoptosis of immune cells was also accompanied with sepsis.

The test system of assay [4] is mouse splenocytes. Briefly: Cytokine release from LPS-stimulated mouse splenocytes (ELISA). The class given is cell-based. Here is the method: Mouse splenocytes were positioned on an RPMI 1640 medium including 5% FBS in a 96-well plate, and maintained at 37° C. in a 5% CO2 incubator. Thereafter, the splenocytes were stationarily incubated with LPS (100 ng/ml) for 24 hours in the presence or absence of Ac-PGP. After 30 minutes, LPS was added to the cells and collected a cell-free supernatant, and then the supernatant was centrifuged, and TNF-α, IL-6 and IFN-γ were measured using ELISA (BD Biosciences Pharmingen). In regards to the effect of IFN-γ on production of pro-inflammatory cytokines induced by LPS, 5×10^5 cells/ml of the mouse splenocytes were stimulated with 100 ng/ml of LPS in the presence or absence IFN-γ (R&D) (at various concentrations of 1, 10, 100 and 1,000 IU/ml). Amounts of TNF-α and IL-6 were measured 20 hours after stationary incubation using ELISA (BD Biosciences Pharmingen).
as §1
Since it was confirmed that the administration of the Ac-PGP improved in vivo production of IFN-γ, a direct effect of the Ac-PGP on production of IFN-γ by splenocytes was examined. […] Also, an effect of IFN-γ on production of the pro-inflammatory cytokines was also examined.

Assay [5] relates to PBMCs. Briefly: Cytokine production by LPS-stimulated human PBMCs. In kind it is cell-based. Particulars: human PBMCs stimulated with LPS. From the text: All kinds of protocols used in human beings were approved by the Institutional Review Board (IRB) at Dong-A University Hospital, and prior consents were obtained from all blood donors. Peripheral blood was collected from healthy donors, and human peripheral monocytes were separated using a Histopaque-1077 gradient. Neutrophils were separated through methods such as dextran precipitation of red blood cell, hypotonic lysis, and usage of lymphocyte isolation medium gradient, as known in the related art (Bae, Y. S. et al. Blood 97, 2854-2862(2001)). The separated human leukocytes were used immediately.
Next, an effect of the Ac-PGP on production of cytokines by human neutrophils and PBMCs was examined. […] A human CXCR2 chemokine agonist CXCL8 had few effects on production of TNF-α or IFN-γ stimulated with LPS (FIG. 28 to FIG. 31). Therefore, the Ac-PGP could improve both antiseptic activities in leukocytes derived from human beings and mice.

In the case of acetylated-Pro-Gly-Pro [Ac-PGP], the “level of TNF-α in peritoneal fluid” value in assay [1] (4 to 72 hours after CLP, FIG. 14) is reported as “induced a decrease in levels”. The “level of IL-1β in peritoneal fluid” value in assay [1] (4 to 72 hours after CLP, FIG. 15) is “induced a decrease in levels”. In addition, the “level of IL-6 in peritoneal fluid” value in assay [1] (4 to 72 hours after CLP, FIG. 16) is “induced a decrease in levels”. Further, the “level of IFN-γ in peritoneal fluid” value in assay [1] (4 to 72 hours after CLP, FIG. 19) is given as “remarkably increased”. Also, the “level of IL-12p70 in peritoneal fluid” value in assay [1] (4 to 72 hours after CLP, FIG. 20) is “remarkably increased”. Further, in assay [1] (4 to 72 hours after CLP, FIG. 21), the “level of IL-2 in peritoneal fluid” value was “remarkably increased”. In assay [1] (24 hours after the CLP), the “level of IFN-γ in the peritoneal fluid” value is listed as “improved levels” and the “level of IL-12 in the peritoneal fluid” value was “improved levels”. Moreover, the death rate result in assay [2] is reported as “death rate decreased”. In addition, the “necrosis of the liver tissues” value in assay [3] (17.5 mg/kg 2 hours after CLP) is reported as “decreased”. For the same substance, the “formation of alveolar congestion and thrombotic lesions in the lungs” value in assay [3] is recorded as “remarkably suppressed”. The “release of TNF-α by LPS” value in assay [4] (LPS 100 ng/ml, 24 hours, FIG. 17) is listed as “suppressed”. Moreover, in assay [4] (LPS 100 ng/ml, 24 hours, FIG. 18), the “release of IL-6 by LPS” value is on record as “suppressed”. In addition, in assay [4] (LPS-stimulated splenocytes, FIG. 24), the “production of IFN-γ by LPS” value is listed as “increased production of IFN-γ”. In addition, the “production of TNF-α” value in assay [5] (FIG. 29) is “remarkably suppressed”. In addition, the “production of IFN-γ” value in assay [5] (FIG. 31) is “remarkably improved”.
